Key:
Format in all cases: in vivo
[1] = tested on: crabgrass, large (large crabgrass, Digitaria sanguinalis); test: Test A pre-/postemergence: crabgrass, large
Summary of the method: (§1)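 Pre: directed soil spray after planting in loam + sand. Post: same formulation (non-phytotoxic solvent + surfactant) on 1–2-leaf plants, 2–10 cm. Greenhouse ~10 d; visual injury 0–100 vs untreated.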

[2] = tested on: foxtail, giant (giant foxtail, Setaria faberii); test: Test A pre-/postemergence: foxtail, giant
Summary of the method: as §1

[3] = tested on: velvetleaf (Abutilon theophrasti); test: Test A pre-/postemergence: velvetleaf
Summary of the method: as §1

[4] = tested on: blackgrass (Alopecurus myosuroides); test: Test C pre-/postemergence: blackgrass
Summary of the method: (§2)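 Preemergence on seeds in loam/sand, postemergence on 2–18 cm (1–4-leaf) plants in peat-based medium; compounds in non-phytotoxic solvent with surfactant. After 13–15 days in greenhouse, visual rating versus controls, 0 (no effect) to 100 (complete control).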

[5] = tested on: winter wheat (Triticum aestivum); test: Test C pre-/postemergence: winter wheat
Summary of the method: as §2

[6] = tested on: galium (catchweed bedstraw, Galium aparine); test: Test C pre-/postemergence: galium
Summary of the method: as §2

[7] = tested on: foxtail, giant (giant foxtail, Setaria faberii); test: Test C pre-/postemergence: foxtail, giant
Summary of the method: as §2

[8] = tested on: lambsquarters (Chenopodium album); test: Test C pre-/postemergence: lambsquarters
Summary of the method: as §2

[9] = tested on: nutsedge, yellow (yellow nutsedge, Cyperus esculentus); test: Test C pre-/postemergence: nutsedge, yellow
Summary of the method: as §2

[10] = tested on: pigweed (Amaranthus retroflexus); test: Test C pre-/postemergence: pigweed
Summary of the method: as §2

[11] = tested on: soybean (Glycine max); test: Test C pre-/postemergence: soybean
Summary of the method: as §2

[12] = tested on: velvetleaf (Abutilon theophrasti); test: Test C pre-/postemergence: velvetleaf
Summary of the method: as §2

[13] = Postemergence, 125 g ai/ha, 0 to 100 scale, 0 is no effect, 100 is complete control
[14] = Postemergence, 500 g ai/ha, 0 to 100 scale, 0 is no effect, 100 is complete control
[15] = Preemergence, 125 g ai/ha, 0 to 100 scale where 0 is no effect and 100 is complete control
[16] = Preemergence, 500 g ai/ha, 0 to 100 scale (0 no effect, 100 complete control)
[17] = Postemergence, 31 g ai/ha, scale 0 to 100 (0 no effect, 100 complete control)
[18] = Postemergence, 62 g ai/ha, scale 0 to 100 (0 no effect, 100 complete control)
[19] = Postemergence, 125 g ai/ha, scale 0 to 100, 0 no effect, 100 complete control
[20] = Postemergence, 250 g ai/ha, scale 0 to 100
[21] = Preemergence, 31 g ai/ha, scale 0 (no effect) to 100 (complete control)
[22] = Preemergence, 62 g ai/ha, scale of 0 to 100, 0 is no effect, 100 is complete control
[23] = Preemergence, 125 g ai/ha, scale 0 to 100, 0 no effect, 100 complete control
[24] = Preemergence, 250 g ai/ha, scale 0 to 100, 0 no effect, 100 complete control
[25] = Postemergence, 250 g ai/ha, scale 0 to 100 (0 no effect, 100 complete control)

Compound: CCOc1nn(-c2ccc(F)cc2)nc1Cc1ccnc(C(F)F)c1 [Compound 195]
- Plant response rating, Crabgrass, Large [1, 13]: 90
- Crabgrass, Large plant response rating [1, 14]: 90
- Plant response rating, Crabgrass, Large [1, 15]: 100
- Plant response rating, Crabgrass, Large [1, 16]: 100
- Plant response rating, Foxtail, Giant [2, 13]: 90
- Foxtail, Giant plant response rating [2, 14]: 90
- Plant response rating, Foxtail, Giant [2, 15]: 100
- Plant response rating, Foxtail, Giant [2, 16]: 100
- Plant response rating, Velvetleaf [3, 13]: 90
- Velvetleaf plant response rating [3, 14]: 100
- Plant response rating, Velvetleaf [3, 15]: 70
- Plant response rating, Velvetleaf [3, 16]: 80
- Plant response rating, Blackgrass [4, 17]: 45
- Plant response rating, Blackgrass [4, 18]: 70
- Plant response rating, Blackgrass [4, 19]: 80
- Plant response rating, Blackgrass [4, 20]: 80
- Plant response rating, Blackgrass [4, 21]: 90
- Plant response rating, Blackgrass [4, 22]: 90
- Plant response rating, Blackgrass [4, 23]: 90
- Plant response rating, Blackgrass [4, 24]: 90
- Plant response rating, Wheat [5, 17]: 10
- Plant response rating, Wheat [5, 18]: 20
- Plant response rating, Wheat [5, 19]: 25
- Plant response rating, Wheat [5, 25]: 30
- Plant response rating, Wheat [5, 21]: 0
- Plant response rating, Wheat [5, 22]: 5
- Plant response rating, Wheat [5, 23]: 5
- Plant response rating, Wheat [5, 24]: 30
- Plant response rating, Galium [6, 17]: 80
- Plant response rating, Galium [6, 18]: 95
- Plant response rating, Galium [6, 19]: 95
- Plant response rating, Galium [6, 25]: 95
- Plant response rating, Galium [6, 21]: 10
- Plant response rating, Galium [6, 22]: 80
- Plant response rating, Galium [6, 23]: 90
- Plant response rating, Galium [6, 24]: 95
- Plant response rating, Foxtail, Giant [7, 17]: 35
- Plant response rating, Foxtail, Giant [7, 18]: 35
- Plant response rating, Foxtail, Giant [7, 19]: 75
- Plant response rating, Foxtail, Giant [7, 20]: 90
- Plant response rating, Foxtail, Giant [7, 21]: 98
- Plant response rating, Foxtail, Giant [7, 22]: 98
- Plant response rating, Foxtail, Giant [7, 23]: 100
- Plant response rating, Foxtail, Giant [7, 24]: 100
- Plant response rating, Lambsquarters [8, 17]: 95
- Plant response rating, Lambsquarters [8, 18]: 95
- Plant response rating, Lambsquarters [8, 19]: 95
- Plant response rating, Lambsquarters [8, 25]: 95
- Plant response rating, Lambsquarters [8, 21]: 55
- Plant response rating, Lambsquarters [8, 22]: 80
- Plant response rating, Lambsquarters [8, 23]: 90
- Plant response rating, Lambsquarters [8, 24]: 95
- Plant response rating, Nutsedge, Yellow [9, 17]: 10
- Plant response rating, Nutsedge, Yellow [9, 18]: 20
- Plant response rating, Nutsedge, Yellow [9, 19]: 25
- Plant response rating, Nutsedge, Yellow [9, 25]: 25
- Plant response rating, Nutsedge, Yellow [9, 21]: 0
- Plant response rating, Nutsedge, Yellow [9, 22]: 0
- Plant response rating, Nutsedge, Yellow [9, 23]: 5
- Plant response rating, Nutsedge, Yellow [9, 24]: 80
- Plant response rating, Pigweed [10, 17]: 95
- Plant response rating, Pigweed [10, 18]: 95
- Plant response rating, Pigweed [10, 19]: 98
- Plant response rating, Pigweed [10, 25]: 98
- Plant response rating, Pigweed [10, 21]: 98
- Plant response rating, Pigweed [10, 22]: 98
- Plant response rating, Pigweed [10, 23]: 100
- Plant response rating, Pigweed [10, 24]: 100
- Plant response rating, Soybean [11, 17]: 40
- Plant response rating, Soybean [11, 18]: 40
- Plant response rating, Soybean [11, 19]: 65
- Plant response rating, Soybean [11, 25]: 65
- Plant response rating, Soybean [11, 21]: 0
- Plant response rating, Soybean [11, 22]: 0
- Plant response rating, Soybean [11, 23]: 0
- Plant response rating, Soybean [11, 24]: 25
- Plant response rating, Velvetleaf [12, 17]: 45
- Plant response rating, Velvetleaf [12, 18]: 50
- Plant response rating, Velvetleaf [12, 19]: 60
- Plant response rating, Velvetleaf [12, 25]: 65
- Plant response rating, Velvetleaf [12, 21]: 10
- Plant response rating, Velvetleaf [12, 22]: 25
- Plant response rating, Velvetleaf [12, 23]: 55
- Plant response rating, Velvetleaf [12, 24]: 90

Source: US9302999B2, “Substituted triazoles as herbicides” (E. I. DU PONT DE NEMOURS AND COMPANY, priority 2012, dated 2016)
